# Reference: paper PMC4028696, “Development of a screen to identify selective small molecules active against patient-derived metastatic and chemoresistant breast cancer cells” (Breast Cancer Research : BCR, 2013)
# Experiments:
# [1] = test system: MCF-10A cells; assay: BrdU proliferation and cell cycle analysis; type: cell-based, human; conditions: 15 μM, 24 or 48 hours vs DMSO
# Experimental: (§1) Cells were seeded in six-well plates (BD Falcon) in their respective media at different densities to attain 70% to 80% confluency at the end of the assay. In order to compare the proliferation rate of established cell lines compared to patient-derived cells, 10 μM of 5-bromo-2-deoxyuridine (BrdU) (Sigma) was added to the culture media for 30 minutes or 6 hours in triplicate. To determine the impact of C-6 on the cell cycle, cells were treated with 15 μM C-6 or 0.02% (v/v) DMSO vehicle in the corresponding media containing 2% FBS for 24 and 48 hours in triplicate followed by treatment with 10 μM BrdU for 30 minutes. Immediately following BrdU treatment, floating cells were collected and adherent cells were trypsinized. Floating and adherent cells were combined, washed with HBSS containing 2% FBS, fixed with 70% ethanol and stored overnight at -20°C. Cells were then treated with 2 M HCl containing 0.5% Triton X-100 (EMD Millipore) for 30 minutes at room temperature and were washed with 0.1 M sodium tetraborate (Sigma) at pH = 8.5. Next, cells were blocked with staining buffer, which consisted of 1% BSA, 0.5% Tween-20 (Fisher Scientific) in PBS, for five minutes and were stained with a mouse monoclonal BrdU antibody (Developmental Studies Hybridoma Bank, Iowa City, IA, USA) for one hour on ice. Cells were subsequently washed and stained with anti-mouse Alexa Fluor® 488 (Life Technologies) for 30 minutes on ice, washed, stained with 5 μg/mL of propidium iodide (EMD Millipore) and passed through a 70-μm cell strainer. Cell suspensions were analyzed using a FACScan flow cytometer and the resulting data were analyzed with Flow Jo software. The average ± SD of three wells for each condition was calculated.
# [2] = test system: MCF-7 cells; assay: BrdU proliferation and cell cycle analysis; type: cell-based, human; conditions: MCF-7, 15 μM, 24 or 48 hours vs DMSO
# Experimental: as §1
# [3] = test system: MDA-MB-231 cells; assay: BrdU proliferation and cell cycle analysis; type: cell-based, human; conditions: MDA-MB-231, 15 μM, 24 or 48 hours vs DMSO
# Experimental: as §1
# [4] = test system: T47D cells; assay: BrdU proliferation and cell cycle analysis; type: cell-based, human; conditions: 15 μM, 24 or 48 hours vs DMSO
# Experimental: as §1
# [5] = test system: PE904557a, PE900642a and PE1100025 cells; assay: Live/dead assay, three-dimensional Matrigel culture; type: cell-based, human; conditions: 30 or 60 μM, five days
# Experimental: For the three dimensional culture experiments, PE904557a, PE900642a and PE11000025 cells were seeded in a 24-well ultra low adhesion plate (Costar) at approximately 2 × 10^6 cells/mL in mammary epithelial cell growth medium (MEGM) complete media (Lonza, Basel Switzerland) and were cultured overnight. The resulting aggregates were separated from single cells by differential centrifugation. Next, 20 μL of growth factor reduced Matrigel (BD Biosciences) was added to each well of a black walled clear bottom 24-well plate (Greiner Bio-one) and was allowed to solidify to form a base layer. The aggregates were then suspended in Matrigel on ice and approximately 300 aggregates in 40 μL were added to each well. After the Matrigel solidified, modified M87 media was added to each well and the cells were cultured overnight. The media were subsequently aspirated and the cells were treated with 30 or 60 μM C-6 or the corresponding 0.06% (v/v) DMSO vehicle control. After culturing for five days, the viability and cytotoxicity were determined utilizing the Live/dead assay (Life Technologies) in the same manner as described above. Multiple Z-planes of the organoids were subsequently imaged utilizing an IX81 microscope (Olympus) running Slide Book 5.0 software (Intelligent Imaging Innovations).
# [6] = test system: LC3A/B-II; assay: Western blot for LC3A/B-II (autophagy); type: cell-based, human; conditions: T47D cells, 30 μM, 48 hours
# Experimental: Cells were lysed in cold radioimmunoprecipitation assay buffer (50 mM Tris HCl, 150 mM NaCl, 0.1% sodium dodecyl sulfate (SDS), 0.5% sodium deoxycholate, 1% Triton X-100, pH = 8.0) supplemented with protease inhibitor cocktail (Sigma), phosphatase inhibitor cocktail 2 (Sigma) and 1 mM dithiothreitol (DTT) (Sigma). The lysate was sonicated for 30 seconds using a 450 Sonifier (Branson Ultrasonics, Danbury, CT, USA) and was centrifuged at 14,000 RPM for five minutes at 4°C. The protein concentration was determined using the BCA protein assay kit (Peirce, Rockford, IL, USA) and the samples were boiled for five minutes with 4× SDS Laemmli buffer. Equal amounts of protein were resolved on SDS polyacrylamide gels and transferred to an Immobilon-FL PVDF membrane (EMD Millipore). Blots were blocked in Odyssey Blocking Buffer (LI-COR, Lincoln, NE, USA) for one hour at room temperature, stained with primary antibodies overnight at 4°C, washed, and stained with IR800CW or IR680 anti-mouse or rabbit secondary antibodies (LI-COR) for one hour at room temperature. Blots were imaged with the Odyssey Infrared Imaging System (LI-COR).
# [7] = Solubility (stated property); type: physicochemical
smiles,measurement,setting,value
COc1cc(OC)cc(C(C)c2ccc(NC(=O)OC(C)(C)C)cc2)c1 (stereo not shown) [C-6],cell cycle profile,[1],did not show a statistically significant difference
same,percentage of cells in G1/G0,[2],increased
same,percentage of cells in G1/G0,[3],increased
same,percentage of cells in G1/G0,[4],increased
same,cell death in three-dimensional culture,[5],able to induce cell death
same,LC3A/B-II levels,[6],small increase
same,solubility,[7],poor solubility
